Experimental findings from patent US7037644B1, “Means and methods for monitoring non-nucleoside reverse transcriptase inhibitor antiretroviral therapy and guiding therapeutic decisions in the treatment of HIV/AIDS” (ViroLogic, Inc., priority 1998, dated 2006) are described below.

Common to all, as to assay: Phenotypic susceptibility assay (site directed mutant RTV)
Type in all cases: cell-based, HIV-1

One test has as its system L100I-K103N-Y188L-RTV. Particulars: mutations at 103 and 100 and 188. The source says: (§1) The resistance test vectors containing a functional luciferase gene cassette were constructed and host cells were transfected with the resistance test vector DNA. The resistant test vectors contained patient-derived reverse transcriptase and protease sequences that were either susceptible or resistant to the antiretroviral agents, such as nucleoside reverse transcriptase inhibitors, non-nucleoside reverse transcriptase inhibitors and protease inhibitors. The resistance test vector viral particles produced by transfecting the resistance test vector DNA into host cells, either in the presence or absence of protease inhibitors, were used to infect target host cells grown either in the absence of NRTI or NNRTI or in the presence of increasing concentrations of the drug. The amount of luciferase activity produced in infected target host cells in the presence of drug was compared to the amount of luciferase produced in infected target host cells in the absence of drug. Drug resistance was measured as the amount of drug required to inhibit by 50% the luciferase activity detected in the absence of drug (inhibitory concentration 50%, IC50). The IC50 values were determined by plotting percent drug inhibition vs. log10 drug concentration.
(§2) Host cells were seeded in 10-cm-diameter dishes and were transfected several days after plating with resistance test vector plasmid DNA and the envelope expression vector. Transfections were performed using a calcium-phosphate precipitation procedure. The cell culture media containing the DNA precipitate was replaced with fresh medium, from one to 24 hours, after transfection. Cell culture media containing resistance test vector viral particles was harvested one to four days after transfection and was passed through a […] filter before being stored at […]. HIV capsid protein (p24) levels in the harvested cell culture media were determined by an EIA method as described by the manufacturer (SIAC; Frederick, Md.). Before infection, target cells (293 and 293/T) were plated in cell culture media. Control infections were performed using cell culture media from mock transfections (no DNA) or transfections containing the resistance test vector plasmid DNA without the envelope expression plasmid. One to three or more days after infection the media was removed and cell lysis buffer (Promega) was added to each well. Cell lysates were assayed for luciferase activity (FIG. 3). The inhibitory effect of the drug was determined using the following equation: % luciferase inhibition=1−(RLUluc [drug]÷RLUluc)×100 where RLUluc [drug] is the relative light unit of luciferase activity in infected cells in the presence of drug and RLUluc is the Relative Light Unit of luciferase activity in infected cells in the absence of drug. IC50 values were obtained from the sigmoidal curves that were generated from the data by plotting the percent inhibition of luciferase activity vs. the log10 drug concentration. The drug inhibition curves are shown in (FIG. 3).
(§3) The mutations Y188L, L100I and K103N were introduced alone and in combinationn into resistance test vectors using the mega-primer method for site-directed mutagenesis (Sakar and Sommar, Ibid.).

In another test the test system is L100I_K103N-RTV. The conditions noted are these: for change in susceptibility: mutations at 100 and 103.
From the text: as §1, §2, §3

The next test relates to K103N-Y188L-RTV. Particulars: for change in susceptibility: mutations at 103 and 188.
From the text: as §1, §2, §3

The subject of the next test is A98G-RTV. Particulars: for loss of susceptibility (fold, IC50) vs wild type control RTV: A98G alone; for change in susceptibility: mutation at codon 98.
From the text: as §1, §2
The A98G mutation into the resistance test vector using the mega-primer method for site-directed mutagenesis (Sakar and Sommar, Ibid.). A resistance test vector containing the A98G mutation (A98G-RTV) was then tested using the phenotypic assay described earlier and the results were compared to those determined using a genetically defined resistance test vector that was wild type at position 98. We determined the pattern of phenotypic susceptibility to the NNRTIs, delavirdine, nevirapine and efavirenz, in the A98G-RTV.

The test system of another test is K103N-RTV. The conditions noted are these: for change in susceptibility: K103N; for loss of susceptibility (fold, IC50) vs wild type control RTV: K103N alone.
From the text: as §1, §2
The K101E, K103N and G190A mutations were introduced alone and in combination into resistance test vectors using the mega-primer method for site-directed mutagenesis (Sakar and Sommar, Ibid.).
as §3

A further test concerns V106A-Y181C-RTV. The conditions noted are these: for loss of susceptibility (fold, IC50) vs wild type control RTV: V106A and Y181C; for change in susceptibility: mutations at 106 and 181.
From the text: as §1, §2
(§4) The mutations V106A, V189L, V181C an F227L were introduced alone and in combination into resistance test vectors using the mega-primer method for site-directed mutagenesis (Sakar and Sommar, Ibid.). Resistance test vectors containing the V106A mutation (V106A-RTV), the V189L mutation (V189L-RTV), the V181C mutation (V181C-RTV) and E227L mutation (F2271-RTV) and two mutations (V106A-Y181C-RTV) and (V106A-V189L-RTV) and (V106A-F227-RTV) and (V181C-F227-RTV) and three mutations, (V106A-Y181C-F227L-RTV) were then tested using the phenotypic assay described earlier and the results were compared to those determined using a genetically defined resistance test vector that was wild type at positions 106, 189, 181 and 227. We determined the pattern of phenotypic susceptibility to the NNRTIs, delavirdine, nevirapine and efavirenz, in all nine vectors.

A further test relates to V106A-V189L-RTV. Particulars: for change in susceptibility (fold, IC50) vs wild type control RTV: V106A and V189L; for change in susceptibility: mutations at 106 and 189.
From the text: as §1, §2, §4

In the next test the test system is V189L-RTV. Particulars: V189L alone.
From the text: as §1, §2, §4

The subject of another test is V106A-RTV. Particulars: V106A alone.
From the text: as §1, §2, §4

The next test has as its system F227L-RTV. Particulars: F227L alone; below 1 = increased susceptibility.
From the text: as §1, §2, §4

A further test deals with V106A-F227-RTV. The conditions noted are these: for loss of susceptibility (fold, IC50) vs wild type control RTV: V106A and F227L; for change in susceptibility: mutations at 106 and 227.
From the text: as §1, §2, §4

Another test concerns Y181C-F227L-RTV. Particulars: for change in susceptibility (fold, IC50) vs wild type control RTV: Y181C and F227L, below 1 = increased susceptibility; for change in susceptibility: mutations at 181 and 227.
From the text: as §1, §2, §4

The next test concerns V106A-Y181C-F227L-RTV. The conditions noted are these: for loss of susceptibility (fold, IC50) vs wild type control RTV: V106A, Y181C and F227L; for change in susceptibility: mutations at 106 and 181 and 227.
From the text: as §1, §2, §4

In a further test the test system is Y181I-RTV. The conditions noted are these: for loss of susceptibility (fold, IC50) vs wild type control RTV: Y181I alone; for change in susceptibility: mutation at codon 181 (isoleucine).
From the text: as §1, §2
The Y181I mutationwas introduced into the resistance test vector using the mega-primer method for site-directed mutagenesis (Sakar and Sommar, Ibid). A resistance test vector containing the Y181I mutation (Y181I-RTV) was then tested using the phenotypic assay described earlier and the results were compared to those determined using a genetically defined resistance test vector that was wild type at position 181. We determined the pattern of phenotypic susceptibility to the NNRTIs, delavirdine, nevirapine and efavirenz, in the Y181I-RTV.

Structures are written as SMILES. Where “and” joins values, the source holds several entries; their conditions need not be identical. Equal values may be shown once. Entries after “also recorded” stand apart in the source; their conditions may differ.

In the case of `CC(C)Nc1cccnc1N1CCN(C(=O)c2cc3cc(NS(C)(=O)=O)ccc3[nH]2)CC1` [delavirdine], the “change in susceptibility” value with L100I-K103N-Y188L-RTV is reported as “substantial decrease”; with L100I_K103N-RTV, “substantial decrease”; with K103N-Y188L-RTV it was “substantial decrease”; with A98G-RTV it was “slight decrease”; in the test with K103N-RTV, “reduced susceptibility; also recorded: resistance”; in the test on V106A-Y181C-RTV, “significant decrease”. Also, the “change in susceptibility” value with V106A-V189L-RTV is listed as “slight decrease; also recorded: alight decrease”; with V106A-F227-RTV it was “slight decrease”; in the test with Y181C-F227L-RTV, “increase”; in the test with V106A-Y181C-F227L-RTV, “moderate decrease”; in the test with Y181I-RTV, “moderate decrease”. For the same compound, the “loss of susceptibility (fold, IC50) vs wild type control RTV” value (from here on “loss of susceptibility (fold, IC50)”) in the test on A98G-RTV was determined as 3 fold; in the test with K103N-RTV it was 50 fold; in the test with V106A-Y181C-RTV, 100 fold; with V106A-F227-RTV, 3 fold; in the test on V106A-Y181C-F227L-RTV it was 50 fold; in the test on Y181I-RTV it was 20 fold. In addition, the “change in susceptibility (fold, IC50) vs wild type control RTV” value (“change in susceptibility (fold, IC50)” below) with V106A-V189L-RTV was determined as 3 fold; in the test with V189L-RTV, 1.8 fold; with V106A-RTV, 5 fold; with F227L-RTV, 0.03 fold; with Y181C-F227L-RTV, 0.89 fold.
With `O=C1Nc2ccc(Cl)cc2[C@@](C#CC2CC2)(C(F)(F)F)O1` [efavirenz], the “change in susceptibility” value was “substantial decrease” in the test on L100I-K103N-Y188L-RTV; “substantial decrease” with L100I_K103N-RTV; “substantial decrease” in the test with K103N-Y188L-RTV; “slight decrease” in the test on A98G-RTV; “slight decrease” with V106A-Y181C-RTV; “no change” in the test on V106A-V189L-RTV. Further, the “change in susceptibility” value is listed as “slight decrease” in the test with V106A-F227-RTV, “increase” with Y181C-F227L-RTV, “slight decrease” in the test with V106A-Y181C-F227L-RTV and “no change” in the test on Y181I-RTV. Further, the “loss of susceptibility (fold, IC50)” value in the test with A98G-RTV is listed as 3 fold; in the test with K103N-RTV it was 30 fold; in the test with V106A-Y181C-RTV it was 4 fold; with V106A-F227-RTV it was 8 fold; in the test with V106A-Y181C-F227L-RTV it was 12 fold; in the test with Y181I-RTV it was 1.4 fold. Besides, the “change in susceptibility (fold, IC50)” value in the test on V106A-V189L-RTV was 1 fold; with V189L-RTV, 1.3 fold; in the test on V106A-RTV, 1.7 fold; with F227L-RTV, 0.48 fold and 0.4 fold; with Y181C-F227L-RTV it was 0.99 fold.
For the compound `Cc1ccnc2c1NC(=O)c1cccnc1N2C1CC1` [nevirapine], the “change in susceptibility” value with L100I-K103N-Y188L-RTV was “substantial decrease”; with L100I_K103N-RTV, “moderate decrease”; in the test on K103N-Y188L-RTV, “substantial decrease”; in the test on A98G-RTV, “slight decrease”; in the test on K103N-RTV, “reduced susceptibility; also recorded: resistance”; in the test on V106A-Y181C-RTV, “substantial decrease”. Besides, the “change in susceptibility” value in the test with V106A-V189L-RTV was “moderate decrease”; in the test on V106A-F227-RTV, “substantial decrease”; with Y181C-F227L-RTV it was “significant decrease”; in the test with V106A-Y181C-F227L-RTV, “substantial decrease”; with Y181I-RTV, “significant decrease”. The “loss of susceptibility (fold, IC50)” value in the test on L100I_K103N-RTV (L100I and K103N) is recorded as 70 fold; with K103N-Y188L-RTV (K103N and Y188L), “greater than 800 fold”; in the test on A98G-RTV, 8 fold; in the test with K103N-RTV it was 55 fold; with V106A-Y181C-RTV, “greater than 800 fold”; in the test on V106A-F227-RTV, “greater than 800 fold”. For the same compound, the “loss of susceptibility (fold, IC50)” value is on record as “greater than 800 fold” in the test with V106A-Y181C-F227L-RTV and 740 fold in the test on Y181I-RTV. For the same compound, the “change in susceptibility (fold, IC50)” value in the test on V106A-V189L-RTV was determined as 50 fold; with V189L-RTV, 1.3 fold; with V106A-RTV it was 60 fold; in the test with F227L-RTV, 3 fold; in the test with Y181C-F227L-RTV it was 285 fold.
